Series [1] concerns the target T1, PKMYT1 (Homo sapiens, UniProt Q99640).
T1 sequence (Q99640 1-499): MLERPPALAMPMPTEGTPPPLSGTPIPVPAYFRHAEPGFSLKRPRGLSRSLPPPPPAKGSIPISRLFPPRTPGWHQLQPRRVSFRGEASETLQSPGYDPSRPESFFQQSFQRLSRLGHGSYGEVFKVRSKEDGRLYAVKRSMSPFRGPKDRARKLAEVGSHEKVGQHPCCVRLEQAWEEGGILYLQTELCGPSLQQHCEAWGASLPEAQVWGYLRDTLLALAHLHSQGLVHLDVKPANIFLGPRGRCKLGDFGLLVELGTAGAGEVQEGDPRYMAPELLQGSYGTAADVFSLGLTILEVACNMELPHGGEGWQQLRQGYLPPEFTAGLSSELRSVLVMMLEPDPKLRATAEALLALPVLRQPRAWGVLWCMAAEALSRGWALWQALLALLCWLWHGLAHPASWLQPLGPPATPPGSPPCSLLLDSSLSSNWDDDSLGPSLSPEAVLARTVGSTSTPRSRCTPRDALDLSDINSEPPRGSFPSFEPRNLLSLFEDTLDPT

Series [2] can be described thus: CD-1 mouse pharmacokinetic study. The note with it: female, in vivo, iv, 1 mg/kg.
The nature of series [3]: in vivo. The note with it: male, Sprague-Dawley, rat, iv, 1 mg/kg.
A short description of series [4]: in vivo. Conditions: male, beagle, dog, plasma, iv, 0.5 mg/kg.
Series [5] in a line: in vivo. The note with it: male, cynomolgus monkey, plasma, iv, 0.5 mg/kg.
The nature of series [6]: in vitro. The note with it: human, hepatocytes.
The target of series [7] is T1, PKMYT1. In words: Fluorescence polarization competitive displacement screen with Tracer 178. Conditions: Tracer 178 binding probe.
The subject of series [8] is OVCAR3 CCNE1 amplified xenograft. Conditions: PO twice daily (BID), OVCAR3 model ref 6; cited from earlier work.
Series [9] in a line: in vitro. The note with it: human, Caco-2.

`Cc1ccccc1-n1c(N)c(C(N)=O)c2nc3ccccc3nc21` [Compound 2, reference compound]: in [1], the “PKMYT1 inhibition in biochemical ADP release enzymatic assay (in words)” value (“PKMYT1 inhibition” for short) was “inactive”.

Take `Cc1cc(O)ccc1-n1c(N)c(C(N)=O)c2nc3ccccc3nc21` [Compound 3, 2-amino-1-(4-hydroxy-2-methyl-phenyl)pyrrolo[3,2-b]quinoxaline-3-carboxamide]: the “PKMYT1 inhibition” value in series [1] is “inactive”.

With `Cc1ccc(C(F)F)cc1-n1c(N)c(C(N)=O)c2nc3ccccc3nc21` [Compound 14, 2-amino-1-[5-(difluoromethyl)-2-methyl-phenyl]pyrrolo[3,2-b]quinoxaline-3-carboxamide], in [1], the “PKMYT1 inhibition” value was “inactive”.

As to `Cc1ccc(O)c(C)c1-n1c(N)c(C(N)=O)c2cc(Cl)cnc21` [Compound 55, (S)-2-amino-5-chloro-1-(3-hydroxy-2,6-dimethyl-phenyl)pyrrolo[2,3-b]pyridine-3-carboxamide], the clearance (in general, the rate of elimination divided by the concentration) at 24 h is 59.2 mL/min/kg in series [2], 25.6 mL/min/kg in series [3], 21.3 mL/min/kg in series [4] and 19.4 mL/min/kg in series [5]. Also, the hepatocyte CLint – broadly, the capacity of the preparation to metabolise the compound, expressed as a volume cleared per time – in [6] came to 4.5 µL/min/1e6 cells.

For the compound `NC(=O)c1c(N)n(-c2cccc3[nH]ccc23)c2nc3ccccc3nc12` [Compound 11, 2-amino-1-(1H-indol-4-yl)pyrrolo[3,2-b]quinoxaline-3-carboxamide], the “PKMYT1 inhibition” value in series [1] was “inactive”.

In the case of `NC(=O)c1c(N)n(-c2cccc3[nH]cnc23)c2nc3ccccc3nc12` [Compound 13, 2-amino-1-(1H-benzimidazol-4-yl)pyrrolo[3,2-b]quinoxaline-3-carboxamide], the “PKMYT1 inhibition” value in [1] is “inactive”.

Regarding `NC(=O)c1c(N)n(-c2cccc3[nH]nnc23)c2nc3ccccc3nc12` [Compound 12, 2-amino-1-(1H-benzotriazol-4-yl)pyrrolo[3,2-b]quinoxaline-3-carboxamide], the “PKMYT1 inhibition” value in series [1] was “inactive”.

Regarding `Cc1ccc(N)cc1-n1c(N)c(C(N)=O)c2nc3ccccc3nc21` [Compound 9, 2-amino-1-(5-amino-2-methyl-phenyl)pyrrolo[3,2-b]quinoxaline-3-carboxamide], in series [1], the “PKMYT1 inhibition” value is “inactive”.

`Cc1nc(Nc2ncc(C(=O)Nc3c(C)cccc3Cl)s2)cc(N2CCN(CCO)CC2)n1` [dasatinib]: the “result in focused screen of 560 known kinase inhibitors” value in series [7] is on record as “potent hits”.

Turning to `Cc1cc2c(C(N)=O)c(N)n(-c3c(C)ccc(O)c3C)c2nc1C` [RP-6306, (S)-2-amino-1-(3-hydroxy-2,6-dimethyl-phenyl)-5,6-dimethyl-pyrrolo[2,3-b]pyridine-3-carboxamide], the results for the clearance at 24 h in series [2] and in series [4] were 30.4 mL/min/kg and 13.1 mL/min/kg, respectively. Besides, the maximum tolerated dose in series [8] is 20 mg/kg.

As to `NC(=O)c1c(N)n(-c2c(Cl)ccc(O)c2Cl)c2nc3ccccc3nc12` [Compound 18, 2-amino-1-(2,6-dichloro-3-hydroxy-phenyl)pyrrolo[3,2-b]quinoxaline-3-carboxamide], in [9], the Papp A→B (as a rule, how fast a substance crosses the layer from the apical side) was 18.8 ×10⁻⁶ cm/s.

Regarding `Cc1c(O)ccc(Cl)c1-n1c(N)c(C(N)=O)c2nc3ccccc3nc21` [Compound 17, 2-amino-1-(6-chloro-3-hydroxy-2-methyl-phenyl)pyrrolo[3,2-b]quinoxaline-3-carboxamide], the Papp A→B in [9] was found to be 14.1 ×10⁻⁶ cm/s.

(Values after publication PMC9837800 (Journal of medicinal chemistry, 2022).)
